This note sets out measurements from ChEMBL document CHEMBL5329207, “Design, synthesis, and biological evaluation of diaminopyrimidine derivatives as novel focal adhesion kinase inhibitors” (RSC Med Chem, 2023).

The structures appear in SMILES notation.

A word on the IC50: it is the concentration that gives 50% inhibition.

For one assay, the system named is MDA-MB-231. Nature of the assay: cells. As to conditions: Homo sapiens, MDA-MB-231, 72 h.
In another assay the test system is A549. The assay can be described thus: cells. As to conditions: Homo sapiens, A549, 72 h.
The target of assay [1] is T1, Focal adhesion kinase 1 (Homo sapiens, UniProt Q05397). The assay can be described thus: Inhibition of FAK (unknown origin) incubated for 50 mins in presence of substrate/ATP by HTRF assay. (In general: Time-resolved FRET reads energy transfer from a long-lived donor to a nearby acceptor.)
T1 sequence (Q05397 whole entry, the tested form may be a part): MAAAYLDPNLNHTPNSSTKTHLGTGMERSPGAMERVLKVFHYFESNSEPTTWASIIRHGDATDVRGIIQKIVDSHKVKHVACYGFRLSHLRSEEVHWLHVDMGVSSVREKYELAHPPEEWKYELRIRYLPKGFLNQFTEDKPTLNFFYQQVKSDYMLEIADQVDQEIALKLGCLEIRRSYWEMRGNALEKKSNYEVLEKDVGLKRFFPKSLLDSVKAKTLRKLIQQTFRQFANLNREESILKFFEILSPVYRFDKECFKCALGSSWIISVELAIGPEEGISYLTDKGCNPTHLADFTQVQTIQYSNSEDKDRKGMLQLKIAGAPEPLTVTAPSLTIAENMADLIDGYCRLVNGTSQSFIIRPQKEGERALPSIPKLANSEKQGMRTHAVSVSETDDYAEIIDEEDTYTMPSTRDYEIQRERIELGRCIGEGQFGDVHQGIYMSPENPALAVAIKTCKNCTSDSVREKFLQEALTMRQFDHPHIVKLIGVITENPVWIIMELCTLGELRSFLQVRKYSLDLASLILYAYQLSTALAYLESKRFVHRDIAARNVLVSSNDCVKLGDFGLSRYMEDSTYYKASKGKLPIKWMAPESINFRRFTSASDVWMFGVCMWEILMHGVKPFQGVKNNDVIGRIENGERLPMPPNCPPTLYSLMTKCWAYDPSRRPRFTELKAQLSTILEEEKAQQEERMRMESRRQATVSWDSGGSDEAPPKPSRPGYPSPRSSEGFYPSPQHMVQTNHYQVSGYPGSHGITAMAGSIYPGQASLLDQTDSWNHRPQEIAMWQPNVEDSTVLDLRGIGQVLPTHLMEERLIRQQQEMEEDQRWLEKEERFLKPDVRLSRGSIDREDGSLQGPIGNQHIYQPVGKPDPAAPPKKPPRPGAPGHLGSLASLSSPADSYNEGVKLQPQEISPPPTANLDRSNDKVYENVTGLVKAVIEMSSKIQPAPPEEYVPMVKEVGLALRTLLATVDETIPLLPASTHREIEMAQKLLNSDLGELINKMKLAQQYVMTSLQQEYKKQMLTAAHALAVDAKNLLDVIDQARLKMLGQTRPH
Assay [2] concerns the target T1, Focal adhesion kinase 1. The assay can be described thus: Inhibition of GST-fused FAK (411 to 686 residues)(unknown origin) expressed in baculovirus expression system using poly(Glu:Tyr) as substrate incubated for 5 mins in presence of ATP by K-LISA screening assay.

Description for A549: Antiproliferative activity against human A549 cells assessed as inhibition of cell proliferation incubated for 72 hrs by MTT assay
Description for MDA-MB-231: Antiproliferative activity against human MDA-MB-231 cells assessed as inhibition of cell proliferation incubated for 72 hrs by MTT assay

On to `CNC(=O)c1ccccc1Nc1nc(Nc2ccc(N3CCOCC3)cc2OC)ncc1Cl`, for which the IC50 is 1020 nM in the assay with MDA-MB-231 and 4240 nM with A549.
Turning to `COc1cc(C(=O)NC2CCC(O)CC2)ccc1Nc1ncc(Cl)c(Nc2ccccc2P(C)(C)=O)n1` (centres undefined), the 50% inhibitory concentration (IC50) at Focal adhesion kinase 1 [1] is 15.7 nM; in the assay with MDA-MB-231, 2490 nM; with A549, 1400 nM.
Regarding `Cc1cc(C(=O)NC2CCNCC2)ccc1Nc1ncc(Cl)c(Nc2ccccc2P(C)(C)=O)n1`, the half-inhibitory concentration (IC50) on Focal adhesion kinase 1 [1] was found to be 28.8 nM.
Consider `CNC(=O)c1ccccc1Nc1nc(Nc2ccc(N3CCOCC3)cc2OC)ncc1C(F)(F)F`, for which the IC50 at Focal adhesion kinase 1 [2] amounted to 1.5 nM.
On to `CNC1CCN(C(=O)c2ccc(Nc3ncc(Cl)c(Nc4ccccc4P(C)(C)=O)n3)cc2)CC1`, for which the IC50 on Focal adhesion kinase 1 [1] was 413 nM.
As to `CP(C)(=O)c1ccccc1Nc1nc(Nc2ccc(C(=O)NC3CCC(O)CC3)cc2)ncc1Cl` (centres undefined), the IC50 is 9.6 nM at Focal adhesion kinase 1 [1], 860 nM in the assay on MDA-MB-231 and 110 nM in the assay on A549.
As for `CN(C(=O)c1ccc(Nc2ncc(Cl)c(Nc3ccccc3P(C)(C)=O)n2)cc1)C1CCCNC1` (centres undefined), the 50% inhibitory concentration (IC50) at Focal adhesion kinase 1 [1] amounted to 163 nM.
`CP(C)(=O)c1ccccc1Nc1nc(Nc2ccc(C(=O)NC3CCNCC3)cc2)ncc1Cl`: the values for the IC50 on Focal adhesion kinase 1 [1], in the assay on MDA-MB-231 and in the assay with A549 were 8.7 nM, 1620 nM and 2300 nM, respectively.
Turning to `CN(C(=O)c1ccc(Nc2ncc(Cl)c(Nc3ccccc3P(C)(C)=O)n2)cc1)C1CCNCC1`, the IC50 at Focal adhesion kinase 1 [1] worked out at 119 nM.
On the same count and under the same terms, under `CP(C)(=O)c1ccccc1Nc1nc(Nc2ccc(C(=O)N3CCC[C@@H](N)C3)cc2)ncc1Cl` stands 240 nM.
As for `CP(C)(=O)c1ccccc1Nc1nc(Nc2ccc(C(=O)N[C@@H]3CCNC3)cc2)ncc1Cl`, the IC50 on Focal adhesion kinase 1 [1] was found to be 16.7 nM; in the assay with MDA-MB-231, 2120 nM; with A549 it was 2230 nM.
On to `CP(C)(=O)c1ccccc1Nc1nc(Nc2ccc(C(=O)NC3CCC(O)CC3)cc2F)ncc1Cl` (centres undefined), for which the 50% inhibitory concentration (IC50) on Focal adhesion kinase 1 [1] was 17.5 nM.
Turning to `Cc1cc(C(=O)NC2CCC(O)CC2)ccc1Nc1ncc(Cl)c(Nc2ccccc2P(C)(C)=O)n1` (centres undefined), at Focal adhesion kinase 1 [1], the IC50 stood at 31.7 nM.
`Cc1cc(Nc2ncc(Cl)c(Nc3ccccc3P(C)(C)=O)n2)ccc1C(=O)NC1CCC(O)CC1` (centres undefined): the 50% inhibitory concentration (IC50) worked out at 10.3 nM on Focal adhesion kinase 1 [1], 7530 nM in the assay on MDA-MB-231 and 520 nM with A549.
For `CP(C)(=O)c1ccccc1Nc1nc(Nc2ccc(C(=O)N3CCC(N4CCOCC4)CC3)cc2)ncc1Cl`, the concentration for half-maximal inhibition (IC50) on Focal adhesion kinase 1 [1] is 149 nM.
In the case of `CP(C)(=O)c1ccccc1Nc1nc(Nc2ccc(C(=O)N3CCOCC3)cc2)ncc1Cl`, the IC50 on Focal adhesion kinase 1 [1] was found to be 356 nM.
Regarding `CP(C)(=O)c1ccccc1Nc1nc(Nc2ccc(C(=O)N3CCNCC3)cc2)ncc1Cl`, on Focal adhesion kinase 1 [1], the half-maximal inhibitory concentration (IC50) came to 328 nM.
Take `CP(C)(=O)c1ccccc1Nc1nc(Nc2ccc(C(=O)NCC3CCNCC3)cc2)ncc1Cl`: on Focal adhesion kinase 1 [1], the half-inhibitory concentration (IC50) was 19.7 nM.
Regarding `COc1cc(C(=O)NC2CCNCC2)ccc1Nc1ncc(Cl)c(Nc2ccccc2P(C)(C)=O)n1`, the IC50 at Focal adhesion kinase 1 [1] came to 6.7 nM; in the assay with MDA-MB-231 it was 1340 nM; with A549, 1410 nM.
`CP(C)(=O)c1ccccc1Nc1nc(Nc2ccc(C(=O)N3CCC[C@H](N)C3)cc2)ncc1Cl`: the concentration for half-maximal inhibition (IC50) at Focal adhesion kinase 1 [1] amounted to 361 nM.
As to `Cc1cc(Nc2ncc(Cl)c(Nc3ccccc3P(C)(C)=O)n2)ccc1C(=O)NC1CCNCC1`, the concentration for half-maximal inhibition (IC50) at Focal adhesion kinase 1 [1] is 31.9 nM.
The same measure, in the same setting: for `CP(C)(=O)c1ccccc1Nc1nc(Nc2ccc(C(=O)NC3CCNCC3)cc2F)ncc1Cl` the value was 27.5 nM.
For the compound `CP(C)(=O)c1ccccc1Nc1nc(Nc2ccc(C(=O)NC3CCNCC3)c(F)c2)ncc1Cl`, the IC50 came to 15.8 nM on Focal adhesion kinase 1 [1], 8690 nM with MDA-MB-231 and 2650 nM in the assay on A549.
On the same counts, the results for `CP(C)(=O)c1ccccc1Nc1nc(Nc2ccc(C(=O)NC3CCC(O)CC3)c(F)c2)ncc1Cl` (centres undefined) are 15.2 nM, 2480 nM and 390 nM.
Take `CP(C)(=O)c1ccccc1Nc1nc(Nc2ccc(C(=O)N[C@H]3CCNC3)cc2)ncc1Cl`: the IC50 on Focal adhesion kinase 1 [1] is 14.3 nM; in the assay on MDA-MB-231, 2350 nM; with A549, 2210 nM.
